{
  "source": "patent US11576894B2",
  "about": "“Combination therapy for the treatment of diabetes” (Janssen Pharmaceutica N.V., priority 2009, dated 2023)",
  "key": {"Male ob/ob mice": {"system": "Male ob/ob mice", "assay": "In vivo ob/ob mouse study: 22 days oral q.d., glucose, OGTT, plasma insulin, body weight", "settings": "for Body Weight / Fed Glucose / Plasma Insulin: 22 days; for Blood Glucose AUC during OGTT: OGTT day 18, glucose 0.5 g/kg", "method": "The mice were allowed ad libitum access to water and chow (commercially supplied diet). […] On the first morning, the mice were grouped as noted above and fed glucose. […] Body weight, food intake and fed blood glucose levels were measured weekly. An oral glucose tolerance test (OGTT) was conducted on the mice on day 18, after overnight fasting. […] Following completion of the study, final body weight and blood glucose level of were collected and the mice in each group was sacrificed to collect blood for biochemistry analysis, including fed blood glucose levels, fasted blood glucose levels, blood glucose levels during OGTT, plasma insulin and body weight change."}, "[1]": {"system": "Male C57BL/6 mice (high fat diet, Steptozotocin)", "assay": "In vivo mouse study: high fat diet / STZ C57BL/6 mice, 3 weeks oral treatment, fed and fasted glucose, OGTT", "settings": "for Fed Glucose / Fed Glucose (% relative to the Vehicle): 3 weeks; for Blood Glucose AUC during OGTT / Blood Glucose AUC during OGTT (% relative to the Vehicle): glucose 2 g/kg; for Fasted Glucose / Fasted Glucose (% relative to the Vehicle): overnight fast from day 18", "from_the_text": "All the mice were then kept on a high fat diet for another 3 weeks. […] At the start of the pre-dose period, each mouse was assigned a predose number, which was indicated on its cage card. After assignment to dosage groups, each mouse was assigned a unique study identification number (which will be indicated on its cage card) and identified by permanent marker on its tail. Mice were housed 5 mice per cage in stainless steel cages. […] The temperature and humidity ranges will be monitored by a hygrothermograph. Mice were fed ad libitum (except where noted) with high-fat diet prepared in Southern University. Water was provided ad libitum by water bottles. The quarantine period was 5 days. The test compound or vehicle was administered orally by gavage. The dosage levels were chosen to represent a range of exposures with pharmacology effects. […] The mice were randomly divided into six testing group of 10 mice per group. Each group was treated for 3 weeks, via oral administration, with one of the following regimens: (a) vehicle; […] On Day 1 (the first day of dosing), dosing at all dose levels was initiated. All groups were then dosed for 20 additional days. The following pharmacological parameters were measured during and at the end of this study: […] The following morning, a basal fasted blood glucose level was determined. […] Food was replaced after the last time point of blood glucose measurement. The pharmacological significance of any findings was determined based on statistical analysis and historical control data. Statistical analyses were performed utilizing GraphPadPRISM."}, "[2]": {"settings": "Metformin HCl 250 mg/kg P.O. q.d."}},
  "note": "Structures can show the parent of a compound that is named as a salt.",
  "data": [
    {"compound": "Cc1ccc([C@@H]2O[C@H](CO)[C@@H](O)[C@H](O)[C@H]2O)cc1Cc1ccc(-c2ccc(F)cc2)s1", "note": "[Cmpd (I-X)]", "values": [
      {"measurement": "blood glucose levels (result in words)", "setting": "Male ob/ob mice; 10 mg/kg", "value": "significantly reduced"},
      {"measurement": "glucose excursion during OGTT (result in words)", "setting": "Male ob/ob mice; 10 mg/kg", "value": "improved"},
      {"measurement": "Fasted Glucose", "setting": "Male ob/ob mice; Cmpd (I-X) 1 mg/kg P.O. q.d.", "value": "159 ± 12", "unit": "mg/dL"},
      {"measurement": "Body Weight", "setting": "Male ob/ob mice; Cmpd (I-X) 1 mg/kg P.O. q.d.", "value": "53 ± 0.8", "unit": "g"},
      {"measurement": "Fed Glucose", "setting": "Male ob/ob mice; Cmpd (I-X) 1 mg/kg P.O. q.d.", "value": "312 ± 34", "unit": "mg/dL"},
      {"measurement": "Plasma Insulin", "setting": "Male ob/ob mice; Cmpd (I-X) 1 mg/kg P.O. q.d.", "value": "46.3 ± 3.5", "unit": "ng/dL"},
      {"measurement": "Blood Glucose AUC during OGTT", "setting": "Male ob/ob mice; Cmpd (I-X) 1 mg/kg P.O. q.d.", "value": "80 ± 4", "unit": "mg/dL * 2 h"},
      {"measurement": "Fasted Glucose", "setting": "Male ob/ob mice; Cmpd (I-X) 10 mg/kg P.O. q.d.", "value": "86 ± 4", "unit": "mg/dL"},
      {"measurement": "Body Weight", "setting": "Male ob/ob mice; Cmpd (I-X) 10 mg/kg P.O. q.d.", "value": "54 ± 0.8", "unit": "g"},
      {"measurement": "Fed Glucose", "setting": "Male ob/ob mice; Cmpd (I-X) 10 mg/kg P.O. q.d.", "value": "254 ± 22", "unit": "mg/dL"},
      {"measurement": "Plasma Insulin", "setting": "Male ob/ob mice; Cmpd (I-X) 10 mg/kg P.O. q.d.", "value": "44.0 ± 3.6", "unit": "ng/dL"},
      {"measurement": "Blood Glucose AUC during OGTT", "setting": "Male ob/ob mice; Cmpd (I-X) 10 mg/kg P.O. q.d.", "value": "48 ± 3", "unit": "mg/dL * 2 h"}
    ]},
    {"compound": "OC[C@H]1O[C@@H](c2ccc(Cl)c(Cc3ccc(-c4ccc(F)nc4)s3)c2)[C@H](O)[C@@H](O)[C@@H]1O", "note": "[Cmpd (I-Y)]", "values": [
      {"measurement": "Fed Glucose", "setting": "[1]; Cmpd (I-Y) 1 mg/kg oral", "value": "360.7 ± 15.7", "unit": "mg/dL"},
      {"measurement": "Fed Glucose (% relative to the Vehicle)", "setting": "[1]; Cmpd (I-Y) 1 mg/kg oral", "value": "86% ± 4%"},
      {"measurement": "Blood Glucose AUC during OGTT", "setting": "[1]; Cmpd (I-Y) 1 mg/kg oral", "value": "31562 ± 1447", "unit": "mg/dL * 2 h"},
      {"measurement": "Blood Glucose AUC during OGTT (% relative to the Vehicle)", "setting": "[1]; Cmpd (I-Y) 1 mg/kg oral", "value": "85% ± 4%"},
      {"measurement": "Fasted Glucose", "setting": "[1]; Cmpd (I-Y) 1 mg/kg oral", "value": "77.8 ± 4.9", "unit": "mg/dL"},
      {"measurement": "Fasted Glucose (% relative to the Vehicle)", "setting": "[1]; Cmpd (I-Y) 1 mg/kg oral", "value": "89.4% ± 5.7%"},
      {"measurement": "Fed Glucose", "setting": "[1]; Cmpd (I-Y) 10 mg/kg oral", "value": "290.5 ± 24.8", "unit": "mg/dL"},
      {"measurement": "Fed Glucose (% relative to the Vehicle)", "setting": "[1]; Cmpd (I-Y) 10 mg/kg oral", "value": "69% ± 6%"},
      {"measurement": "Blood Glucose AUC during OGTT", "setting": "[1]; Cmpd (I-Y) 10 mg/kg oral", "value": "25209 ± 894", "unit": "mg/dL * 2 h"},
      {"measurement": "Blood Glucose AUC during OGTT (% relative to the Vehicle)", "setting": "[1]; Cmpd (I-Y) 10 mg/kg oral", "value": "68% ± 2%"},
      {"measurement": "Fasted Glucose", "setting": "[1]; Cmpd (I-Y) 10 mg/kg oral", "value": "66.9 ± 3.1", "unit": "mg/dL"},
      {"measurement": "Fasted Glucose (% relative to the Vehicle)", "setting": "[1]; Cmpd (I-Y) 10 mg/kg oral", "value": "76.9% ± 3.6%"}
    ]},
    {"compound": "CN(C)C(=N)N=C(N)N", "note": "[Metformin HCl, metformin hydrochloride, reference compound]", "values": [
      {"measurement": "Fasted Glucose", "setting": "Male ob/ob mice; [2]", "value": "166 ± 16", "unit": "mg/dL"},
      {"measurement": "Body Weight", "setting": "Male ob/ob mice; [2]", "value": "52 ± 0.9", "unit": "g"},
      {"measurement": "Fed Glucose", "setting": "Male ob/ob mice; [2]", "value": "371 ± 35", "unit": "mg/dL"},
      {"measurement": "Plasma Insulin", "setting": "Male ob/ob mice; [2]", "value": "48.4 ± 2.0", "unit": "ng/dL"},
      {"measurement": "Blood Glucose AUC during OGTT", "setting": "Male ob/ob mice; [2]", "value": "91 ± 9", "unit": "mg/dL * 2 h"}
    ]},
    {"compound": "CN(C)C(=N)N=C(N)N", "note": "[Metformin, reference compound]", "values": [
      {"measurement": "Fed Glucose", "setting": "[1]; Metformin 500 mg/kg oral", "value": "345.4 ± 28.4", "unit": "mg/dL"},
      {"measurement": "Fed Glucose (% relative to the Vehicle)", "setting": "[1]; Metformin 500 mg/kg oral", "value": "82% ± 7%"},
      {"measurement": "Blood Glucose AUC during OGTT", "setting": "[1]; Metformin 500 mg/kg oral", "value": "34023 ± 1618", "unit": "mg/dL * 2 h"},
      {"measurement": "Blood Glucose AUC during OGTT (% relative to the Vehicle)", "setting": "[1]; Metformin 500 mg/kg oral", "value": "92% ± 4%"},
      {"measurement": "Fasted Glucose", "setting": "[1]; Metformin 500 mg/kg oral", "value": "74.7 ± 3.8", "unit": "mg/dL"},
      {"measurement": "Fasted Glucose (% relative to the Vehicle)", "setting": "[1]; Metformin 500 mg/kg oral", "value": "85.9% ± 4.4%"},
      {"measurement": "effect on blood glucose control (result in words)", "setting": "Male ob/ob mice; 250 mg/kg", "value": "did not have an effect"}
    ]}
  ]
}
